Measured values published in US8629241B2, “Alpha helical mimics, their uses and methods for their production” (The University of Queensland, priority 2004, dated 2014).
Where a SMILES comes first, the peptide text is derived from it. Bridges are numbered along the chain shown (N, C = ends). [ ]: non-standard residue; d: D form. hArg = N=C(N)NCCCC[C@H](N)C(=O)O; Flu = fluorescein; βAla = NCCC(=O)O; Mpa = O=C(O)CCS

How the values were obtained:
thrombin = thrombin (Homo sapiens, UniProt P00734); details: cited from earlier work
trypsin [1] = details: cited from earlier work
[2] = assay type: physicochemical; details: for θ222/θ208 / [θ]192 / [θ]208 / [θ]222: Table 8; for [θ]192 / [θ]208 / [θ]222: one or more cyclic pentapeptide modules versus linear peptides; for % helicity: fH × 100, [θ∞H]222 = −44000, k = 2.6
Method: Circular Dichroism (CD) was performed on peptides having SEQ ID NOs: 8 to 14 and 18 to 31, using methods described above. The molar elipticities at 222 nm, 208 nm and 190 nm, ratios of elipticities at 222 nm/208 nm and relative helicity are shown in Tables 6 and 7.
Assuming that mean alpha helix content (fH) is linearly related to elipticity at 222 nm, or in our case 215 nm ([θ]obs215), then the equation for calculating helix content is: fH=([θ]obs215−[θ]C)/([θ]∞215−[θ]C) (1) Luo and Baldwin^22 determined that the random coil ([θ]C) and infinite alpha helix ([θ]∞222) molar elipticities are temperature dependent based on the equations: [θ]C=2220−53T (2a) [θ]∞215=(−44000+250T)(1−k/Np) (2b) where T is temperature in degrees Celsius, Np is the number of peptide units, and k is a finite length correction.
CD was performed on peptides having one [SEQ ID NO: 8] or more than one modular macrocycle [SEQ ID NOs: 46 and 47], as compared with corresponding linear peptides, Ac[KARAD]n—NH2 where n=1 [SEQ ID NO: 14], n=2 [SEQ ID NO: 54] and n=3 [SEQ ID NO: 55]. The molar elipticities at 222 nm, 208 nm and 190 nm, ratios of elipticities at 222 nm/208 nm and percentage helicity are shown in Table 8.
(§1) CD experiments were performed on a Jasco Model J-710 spectropolarimeter which was routinely calibrated with (1S)-(+)-10-camphorsulfonic acid. Temperature control was achieved using a Neslab RTE-111 circulating water bath. Spectra were recorded in a 0.1 cm Jasco cell between 310-185 nm at 50 nm/min with a band width of 1.0 nm, response time of 2 sec, resolution step width of 0.1 nm and sensitivity of 20, 50 or 100 mdeg. Each spectrum represents the average of 5 scans with smoothing to reduce noise. Peptide samples for CD spectroscopy were dissolved in distilled water (˜1 mg/mL). Each stock solution was diluted to a final concentration of 50 μM in 10 mM sodium phosphate buffer (pH7.4), with or without additives (2,2,2-trifluoroethanol (TFE) or guanidine.HCl). Guanidine.HCl denaturation experiments were performed according to Creighton^105.
1D ^1H NMR spectra were then recorded with presaturation and a relaxation delay (d1) of 30 seconds to allow for full relaxation of peptide and DSS^1H signals to facilitate accurate integration of proton signals with S/N>250:1. This method provides reproducible concentrations within ±2%.
CD data in ellipticity was converted to mean peptide ellipticity using the equation: [θ]=θ/(10×C×Np×1) where θ is the ellipticity in millidegrees, C is the peptide molar concentration (M), 1 is the cell path length (cm), and Np is the number of peptide units (ie. pentapeptides […], 10 & 11 Np=5, 12 Np=4.)
Relative helicities were employed to allow scaling of compounds by dividing the [θ]obs215(8)/[θ]obs215(x) for pentapeptides, and [θ]obs215(24)/[θ]obs215(x) for hexapeptides.

[3] = Stability against denaturants (guanidine.HCl, temperature) followed by CD; assay type: physicochemical; details: 8M guanidinium chloride, 25° C
Method: Proteolytic stability of the helix. trypsin digestion
The helical macrocycles were conformationally very stable even under protein-denaturing conditions, as illustrated by the low dependence of their CD spectra on temperature between 5-65° C. (FIG. 9a) and on the concentration of guanidine.HCl (FIG. 9b).
as §1

trypsin [4] = experiment: Proteolytic stability of the helix, trypsin digestion (Example 10); assay type: in vitro ADME; details: pH 8.2, room temperature, 1 to 155 minutes
Method: A standard solution of Ac—KARAD-NH2 and Ac—(cyclo-1,5)-KARAD-NH2 (1 mg/mL) was prepared in 100 mM ammonium carbonate buffer at pH˜8.2. To 100 μL of each solution was added 1 mg/mL of trypsin (1 μL). The digest was conducted at room temperature with 5 μL aliquots taken at 1, 4, 8, 28, 48, 55, 110, 155 minutes. Aliquots were diluted with 5 μL of 3% TFA to stop the reaction. and analyzed by LC-MS using 2.1×150 mm Phenomenex 300 Å C18 5 μm column, with a 3% per minute linear gradient of 0-60% acetonitrile over 20 minutes. The amount of starting material left in each sample was quantified by determination of total ion counts for the molecular ion.
Compound of SEQ ID NO 8 and its acyclic version SEQ ID NO: 14 were incubated with trypsin (pH 8.2), aliquots removed at intervals between 1 and 155 minutes, and analyzed by LCMS. […] Similarly the cyclic compound 8 was not degraded by human serum (1 h, 37° C.). […] This is consistent with other observations that only an extended or linear peptide conformation is recognized, not only by trypsin, but by all proteolytic enzymes^125 Presumably the cycle is too tightly locked into an alpha helical turn to permit significant unwinding to the extended format needed for recognition by trypsin.

Serum stability = assay type: in vitro ADME; details: 1 h, 37° C
Method: Standard solutions of Ac—KARAD-NH2 and Ac—(cyclo-1,5)-KARAD-NH2 (1 mg/mL) were prepared in water. 200 μL of each peptide was added to human serum 800 μL and incubated at 37° C. Acetonitrile/water 3:1 (300 μL) was added to aliquots (100 μL) of serum at 5, 15, 30, 45 and 60 minutes to precipitate serum proteins, which were removed by centrifugation. The decanted supernatant was analyzed by LC-MS MS with a 2.1×150 mm Phenomenex 300 Å C18 5 um column, using a 3% per minute linear gradient from 0%-60% acetonitrile over 20 minutes. The amount of starting material left in each sample was quantified by determination of total ion counts for the molecular ion.

trypsin [5] = experiment: in vitro; assay type: in vitro ADME; details: isolated enzyme trypsin, pH 8
Method: Solutions of SEQ ID NO: 46 (25 μM) and linear peptide SEQ ID NO: 54 (26 μM) were incubated with trypsin (1 μg/mL) in 25 mM ammonium carbonate buffer (pH=8) at room temperature. Aliquots were taken at 30 seconds, 1 minute, 5 minutes, 15 minutes, 30 minutes, 1 hour and 2 hours, and diluted with an equivalent volume of 3% trifluoroacetic acid. The resultant solutions were analyzed using a 2×75 mm, 3 μm, Aqua C-18 column (Phenomenex) equilibrated in aqueous formic acid (0.1%). Peptide cleavage products were eluted using a linear gradient of acetonitrile from 0 to 80% in aqueous 0.01% formic acid over 20 minutes at a rate of 300 μL/min. Rate of degradation of either SEQ ID NO: 32 or SEQ ID NO: 43 was quantified by determining extracted ion counts of chromatograms relative to control solutions (containing no enzyme) using a QSTAR PULSAR Electrospray QqTOF Mass Spectrometer and analyzed using BioMultiview (SCIEX Software). Retention time of SEQ ID NO: 46=11.64 minutes. Retention time of linear peptide SEQ ID NO: 54=7.43 minutes. SEQ ID NO: 46 was also found to be highly resistant to proteolytic cleavage by trypsin (97% recovered intact after 2 h), whereas the linear peptide […] (SEQ ID NO: 54) was completely degraded within 30 seconds.

[6] = phase III; patients at risk of abrupt vessel closure after coronary angioplasty; cited from earlier work
MDM2 [7] = molecular target: T1, MDM2 (Homo sapiens, UniProt Q00987); details: cited from earlier work
MDM2 [8] = molecular target: T1, MDM2; details: read-out: dissociation constant; cited from earlier work
Bcl-xL = Bcl-xL (Homo sapiens, UniProt Q07817); details: read-out: dissociation constant; cited from earlier work
Bcl-2 = Bcl-2 (Homo sapiens, UniProt P10415); details: read-out: dissociation constant; cited from earlier work
Bcl-2, sequence (P10415 whole entry, species assumed): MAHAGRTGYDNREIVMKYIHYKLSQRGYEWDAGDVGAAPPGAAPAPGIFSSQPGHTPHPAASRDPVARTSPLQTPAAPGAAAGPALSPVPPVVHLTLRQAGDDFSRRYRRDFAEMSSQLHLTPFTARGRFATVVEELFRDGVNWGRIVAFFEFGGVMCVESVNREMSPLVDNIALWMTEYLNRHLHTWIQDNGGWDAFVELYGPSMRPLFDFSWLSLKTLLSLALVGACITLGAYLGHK

T1 sequence (Q00987 whole entry): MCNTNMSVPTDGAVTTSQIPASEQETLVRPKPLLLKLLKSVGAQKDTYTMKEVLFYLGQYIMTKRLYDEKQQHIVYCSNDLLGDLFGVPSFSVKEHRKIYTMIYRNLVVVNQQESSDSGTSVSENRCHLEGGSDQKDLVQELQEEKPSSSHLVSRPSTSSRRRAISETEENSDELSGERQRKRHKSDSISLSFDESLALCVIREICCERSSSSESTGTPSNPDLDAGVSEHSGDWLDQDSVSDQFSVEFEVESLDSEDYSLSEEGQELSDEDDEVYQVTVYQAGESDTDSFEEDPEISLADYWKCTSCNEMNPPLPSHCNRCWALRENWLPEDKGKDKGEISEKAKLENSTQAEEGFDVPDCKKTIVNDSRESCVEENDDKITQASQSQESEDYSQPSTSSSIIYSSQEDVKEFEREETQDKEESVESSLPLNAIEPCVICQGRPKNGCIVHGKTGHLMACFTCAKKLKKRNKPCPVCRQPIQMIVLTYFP
Bcl-xL, sequence (Q07817 whole entry, species assumed): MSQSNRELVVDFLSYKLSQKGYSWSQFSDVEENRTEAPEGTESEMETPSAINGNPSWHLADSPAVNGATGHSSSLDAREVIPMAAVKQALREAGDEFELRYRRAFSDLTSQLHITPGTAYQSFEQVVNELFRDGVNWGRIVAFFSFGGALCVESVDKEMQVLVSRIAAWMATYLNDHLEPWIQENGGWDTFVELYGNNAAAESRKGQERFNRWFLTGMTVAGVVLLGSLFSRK

## N=C(N)NCCC[C@@H]1NC(=O)[C@@H]2CCCN2C(=O)[C@@H](NC=O)CNC(=O)/C=C/C(Cc2ccc(O)cc2)NC(=O)[C@@H](Cc2ccccc2)NC(=O)C1=O (some centres unmarked) [Cyclotheonamide A]
thrombin
  Ki: 180 nM
Trypsin [1]
  Ki: 23 nM

## CC(=O)N[C@H]1CCCCNC(=O)C[C@@H](C(N)=O)NC(=O)[C@H](C)NC(=O)[C@H](CCCNC(=N)N)NC(=O)[C@H](C)NC1=O [SEQ ID NO: 8, Ac-(cyclo-1,5)-[KARAD]-NH2] (Ac-KARAD-NH2; lactam 1-5)
[2]
  molar elipticity at 215 nm in helix stabilizing solvent: does not increase
  θ222/θ208: 0.98
  [θ]192: 52191 degcm^2dmol^−1residue^−1
  [θ]208: −17039 degcm^2dmol^−1residue^−1
  [θ]222: −15464 degcm^2dmol^−1residue^−1
  % helicity: 79%
[2]; [θ]215 relative to SEQ ID NO: 8, 10 mM phosphate buffer, pH 7.4, 25° C
  Relative helicity: 1.00
[2]; equation 2b with k˜4, assuming 8 has 100% helicity
  percentage helicities: 100%
[2]; k factor from 2.4 to 4.5
  helicity on variation of the k factor: 56-135%
[2]; molar elipticity at 190 nm, 10 mM phosphate buffer, pH 7.4, 25° C
  [θ]190: 38300 deg.cm^2.dmol^−1.residue^−1
[2]; molar elipticity at 207 nm, 10 mM phosphate buffer, pH 7.4, 25° C
  [θ]207: −12211 deg.cm^2.dmol^−1.residue^−1
[2]; molar elipticity at 215 nm, 10 mM phosphate buffer, pH 7.4, 25° C
  [θ]215: −12757 deg.cm^2.dmol^−1.residue^−1
[2]; ratio of elipticities, 10 mM phosphate buffer, pH 7.4, 25° C
  θ215/θ207: 1.04
[3]
  alpha helicity (molar elipticity at 215 nm) in denaturant: maintains full alpha helicity
Trypsin [4]
  stability to trypsin (starting material left, LCMS): remained intact
Serum stability
  degradation by human serum: not degraded

## CC(=O)N[C@H]1CCCCNC(=O)C[C@@H](C(=O)N[C@H]2CCCCNC(=O)C[C@@H](C(N)=O)NC(=O)[C@H](C)NC(=O)[C@H](CCCNC(=N)N)NC(=O)[C@H](C)NC2=O)NC(=O)[C@H](C)NC(=O)[C@H](CCCNC(=N)N)NC(=O)[C@H](C)NC1=O [SEQ ID NO: 46] (Ac-KARADKARAD-NH2; lactam 1-5, 6-10)
[2]
  θ222/θ208: 1.29
  [θ]192: 104187 degcm^2dmol^−1residue^−1
  [θ]208: −24957 degcm^2dmol^−1residue^−1
  [θ]222: −32340 degcm^2dmol^−1residue^−1
  % helicity: 99%
Trypsin [5]
  remaining at 2 h, 25 μM: 97%

## N=C(N)NCCCC[C@@H]1NC(=O)CCSSC[C@@H](C(N)=O)NC(=O)[C@@H]2CCCN2C(=O)[C@H](Cc2c[nH]c3ccccc23)NC(=O)[C@H](CC(=O)O)NC(=O)CNC1=O [eptifibatide] ([Mpa][hArg]GDWPC-NH2; disulfide 1-7)
[6]
  incidence of cardiac events: reduce the incidence of cardiac events

## Acetyl-Phe-Met-Aib-Pmp-6C1W-Glu-Ac3c-Leu-NH2
MDM2 [7]
  IC50: 5 nM

## Ac—FR(Dpr-Flu)(Ac6c)(6-Br—W)EEL-NH2
MDM2 [8]
  Kd: 2 nM

## Flu-βANLWAAQRYGRELRRMSDKKFVDSFKK-NH2 ({Flu-βAla}-ANLWAAQRYGRELRRMSDKKFVDSFKK-NH2)
Bcl-xL
  Kd: 0.6 nM
Bcl-2
  Kd: 3 nM
